Drawing on ChEMBL document CHEMBL1201862, “PubChem BioAssay data set” (2004), this text covers EC50 and AC50 for three compounds.

One test concerns the target T1, Protein RecA (Mycobacterium tuberculosis, UniProt P9WHJ3).
T1 sequence (P9WHJ3 whole entry): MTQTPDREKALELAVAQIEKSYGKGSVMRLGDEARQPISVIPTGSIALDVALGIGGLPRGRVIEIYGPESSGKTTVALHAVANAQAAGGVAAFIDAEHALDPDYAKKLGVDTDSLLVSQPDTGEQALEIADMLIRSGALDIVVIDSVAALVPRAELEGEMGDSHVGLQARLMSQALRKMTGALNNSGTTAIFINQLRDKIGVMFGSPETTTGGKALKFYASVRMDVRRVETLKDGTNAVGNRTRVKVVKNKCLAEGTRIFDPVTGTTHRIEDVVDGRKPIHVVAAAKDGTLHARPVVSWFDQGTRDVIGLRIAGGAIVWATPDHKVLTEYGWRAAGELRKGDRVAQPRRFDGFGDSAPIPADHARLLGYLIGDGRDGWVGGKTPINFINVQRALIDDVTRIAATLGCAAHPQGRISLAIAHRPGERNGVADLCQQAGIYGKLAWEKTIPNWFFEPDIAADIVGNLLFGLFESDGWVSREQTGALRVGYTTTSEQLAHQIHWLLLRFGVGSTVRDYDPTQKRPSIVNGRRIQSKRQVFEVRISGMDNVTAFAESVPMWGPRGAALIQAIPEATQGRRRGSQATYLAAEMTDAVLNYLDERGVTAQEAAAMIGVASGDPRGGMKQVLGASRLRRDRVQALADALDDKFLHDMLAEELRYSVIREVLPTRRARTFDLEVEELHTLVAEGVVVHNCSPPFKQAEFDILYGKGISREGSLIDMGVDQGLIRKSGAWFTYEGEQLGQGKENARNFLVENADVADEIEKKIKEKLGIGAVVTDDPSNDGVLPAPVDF
The test is described as follows: Fluorescence Cell-Free Homogeneous Dose Retest to Identify Inhibitors of RecA-Intein Splicing Activity. [Related pubchem assays (depositor defined):AID2097, AID2223, AID489010, AID492950]. The class given is functional.

The target of test [1] is T2, Replicative DNA helicase DnaB (Mycobacterium tuberculosis, UniProt P9WMR3).
T2 sequence (P9WMR3 whole entry): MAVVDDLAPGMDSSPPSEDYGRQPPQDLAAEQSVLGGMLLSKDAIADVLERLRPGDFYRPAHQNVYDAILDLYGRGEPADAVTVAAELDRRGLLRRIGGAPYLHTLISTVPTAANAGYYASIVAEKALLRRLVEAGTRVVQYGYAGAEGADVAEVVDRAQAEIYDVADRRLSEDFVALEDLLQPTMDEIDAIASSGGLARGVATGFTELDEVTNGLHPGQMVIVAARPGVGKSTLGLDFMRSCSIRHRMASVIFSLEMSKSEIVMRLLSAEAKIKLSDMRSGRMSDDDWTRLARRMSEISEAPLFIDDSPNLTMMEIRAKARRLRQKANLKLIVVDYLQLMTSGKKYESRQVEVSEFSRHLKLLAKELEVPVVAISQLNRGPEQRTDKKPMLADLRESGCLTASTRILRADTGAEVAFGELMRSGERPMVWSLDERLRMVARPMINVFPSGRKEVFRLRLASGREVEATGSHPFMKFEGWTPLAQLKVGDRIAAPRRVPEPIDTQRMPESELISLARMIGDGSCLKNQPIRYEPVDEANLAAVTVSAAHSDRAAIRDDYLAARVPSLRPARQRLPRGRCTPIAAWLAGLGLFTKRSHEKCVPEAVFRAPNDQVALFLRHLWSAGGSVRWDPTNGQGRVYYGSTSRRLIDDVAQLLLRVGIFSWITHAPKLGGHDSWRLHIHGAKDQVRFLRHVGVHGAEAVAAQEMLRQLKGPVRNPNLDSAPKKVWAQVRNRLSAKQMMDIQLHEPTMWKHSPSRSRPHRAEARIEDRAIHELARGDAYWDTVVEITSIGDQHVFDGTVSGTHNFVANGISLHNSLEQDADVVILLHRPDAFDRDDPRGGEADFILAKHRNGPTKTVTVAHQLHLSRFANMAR
The test is described as follows: DnaB intein splicing inhibitors, dose response, biochemical, cell-free fluorescence (AID 449749). The class given is functional.

The target of test [2] is T3, Histone-lysine N-methyltransferase NSD2 (Homo sapiens, UniProt O96028).
T3 sequence (O96028 whole entry): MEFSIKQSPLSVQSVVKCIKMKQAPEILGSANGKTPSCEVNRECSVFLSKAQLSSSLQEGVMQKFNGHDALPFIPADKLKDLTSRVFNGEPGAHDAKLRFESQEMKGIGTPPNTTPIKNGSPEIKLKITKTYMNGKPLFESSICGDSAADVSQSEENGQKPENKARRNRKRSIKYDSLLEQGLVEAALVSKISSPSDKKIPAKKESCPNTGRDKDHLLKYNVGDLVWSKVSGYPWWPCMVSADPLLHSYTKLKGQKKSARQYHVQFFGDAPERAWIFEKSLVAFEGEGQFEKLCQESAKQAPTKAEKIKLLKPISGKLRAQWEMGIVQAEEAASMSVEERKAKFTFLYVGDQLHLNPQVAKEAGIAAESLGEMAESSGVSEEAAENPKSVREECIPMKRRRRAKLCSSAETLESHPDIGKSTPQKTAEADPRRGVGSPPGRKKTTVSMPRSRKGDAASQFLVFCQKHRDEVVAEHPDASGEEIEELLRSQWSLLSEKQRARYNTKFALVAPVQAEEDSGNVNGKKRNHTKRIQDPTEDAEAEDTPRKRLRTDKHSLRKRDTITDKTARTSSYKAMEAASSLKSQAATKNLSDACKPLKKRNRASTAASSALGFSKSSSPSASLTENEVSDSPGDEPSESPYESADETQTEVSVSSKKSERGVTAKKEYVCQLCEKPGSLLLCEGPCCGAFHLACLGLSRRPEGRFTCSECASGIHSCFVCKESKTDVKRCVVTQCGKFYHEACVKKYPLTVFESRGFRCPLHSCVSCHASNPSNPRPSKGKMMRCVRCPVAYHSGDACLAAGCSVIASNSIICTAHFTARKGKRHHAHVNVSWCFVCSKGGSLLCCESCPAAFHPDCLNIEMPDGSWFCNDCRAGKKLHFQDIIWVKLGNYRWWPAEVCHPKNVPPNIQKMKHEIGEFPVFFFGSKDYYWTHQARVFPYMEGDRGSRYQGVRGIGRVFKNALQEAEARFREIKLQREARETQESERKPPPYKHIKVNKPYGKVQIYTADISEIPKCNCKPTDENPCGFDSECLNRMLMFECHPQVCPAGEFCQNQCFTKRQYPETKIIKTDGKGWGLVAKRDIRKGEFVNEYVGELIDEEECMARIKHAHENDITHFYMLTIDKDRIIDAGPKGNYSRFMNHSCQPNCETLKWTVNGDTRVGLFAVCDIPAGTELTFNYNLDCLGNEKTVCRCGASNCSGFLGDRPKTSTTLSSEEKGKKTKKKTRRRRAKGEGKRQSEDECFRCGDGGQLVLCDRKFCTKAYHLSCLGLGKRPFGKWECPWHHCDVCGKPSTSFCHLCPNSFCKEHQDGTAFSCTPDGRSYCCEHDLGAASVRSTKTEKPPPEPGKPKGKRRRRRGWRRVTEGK
The class given is biochemical.

The source made the active and inactive calls. Rule as the data show it, for most assays here: actives have a measured AC50 and inactives only a lower limit.

Turning to `C=CCNC1=C(Cl)C(=O)c2ccccc2C1=O`, the concentration giving a half-maximal response (EC50) at Protein RecA is 10.4 µM (active). For the same compound, the half-maximal activity concentration (AC50) was 4.75 µM (active) in test [1] and 19.4 µM (active) in test [2].
As for `CS(=O)(=O)c1ccc2c(c1)SC1=NC(=O)/C(=C/c3ccc(O)c(O)c3)C(=N)N12`, the half-maximal activity concentration (AC50) in test [2] is 1.9 µM (active).
As to `CCOC(=O)C(C(=O)OCC)c1cc(Br)c2noc3c2c1C(=O)c1ccccc1-3`, the EC50 at Protein RecA was 0.393 µM (active). In addition, the values for the AC50 in test [1] and in test [2] were 27.6 µM (active) and > 20 µM (inactive), respectively.
